A short description of data set [1]: Unbound fraction in brain (fu brain). The class given is in vitro ADME. As for the experimental part: (§1) Multiparameter optimization (MPO) and brain/plasma concentration at steady-state (logBB) are widely used to predict BBB permeability. […] A detailed ADME/PK (absorption, distribution, metabolism, excretion and pharmacokinetics) profiling was conducted, and the results are listed in Table . […] These values meet the standards that BBB permeability is considered high if Papp A–B is ≥ 3.0 × 10^–6 cm/s and the efflux ratio is <3.0.

Data set [2] can be described thus: Intrinsic clearance (CLint). The class given is in vitro ADME. The note with it: cells (cell type not named); read-out: median CLint.
Data set [3] in a line: Pharmacokinetics: half-life and bioavailability. The note with it: in vivo.
The nature of data set [4]: Solubility. The class given is physicochemical. The conditions noted are these: in dry DMSO at pH = 7.4. The procedure: as §1
Data set [5] addresses hERG channel (Homo sapiens, UniProt Q12809). Briefly: hERG channel inhibition. On the technique in general: Block of hERG is tested as a sign of cardiac risk.
Data set [6] relates to P-glycoprotein (P-gp). Briefly: P-gp inhibition PET study (tariquidar pretreatment) in NHP. The class given is in vivo, cynomolgus monkeys. An excerpt: (§2) Then, we sought to assess the in vivo PET imaging performance characteristics of [^11C]13a–e in NHPs, and the results are presented in Figure . […] One potential contributor is metabolic instability of those tracers may reduce the amount of intact tracers to cross the BBB. Another important consideration is efflux by ATP-binding cassette (ABC) transporters, such as P-glycoprotein (P-gp) that is highly expressed at the BBB and can actively pump substrates out of the CNS. To investigate whether 13a–e are P-gp efflux substrates, a P-gp inhibition study was conducted. […] To enhance brain uptake in future analogs, various medicinal chemistry strategies could be employed, such as hydrogen bond donor/acceptor optimization, fine-tuning lipophilicity, steric shielding of efflux motifs, and bioisosteric replacements. A potential limitation of this study is the lack of blood sampling during the PET scans, which precluded assessment of [^11C]13e plasma concentrations following tariquidar pretreatment. […]
(§3) PET experiments were conducted on anesthetized healthy cynomolgus monkeys, following approval from the Stockholm Animal Research Ethical Committee (Dnr. 4820/06–600). […] The monkeys’ heads were stabilized with a fixation device, and body temperature was regulated with a Bair Hugger model 505 (Arizant Healthcare, MN, USA) and continuously monitored using an esophageal thermometer. […]

The target in data set [7] is GSK-3. Briefly: Radioligand saturation binding assay with tritiated ligands in hippocampal membranes. Details: species or system Sprague–Dawley rat. The conditions noted are these: tritiated ligand, hippocampus of SD rat brains. As for the experimental part: The pharmacology and physicochemical properties of compounds 13a–13e are depicted in Table . To evaluate binding affinities, saturation binding assays using tritiated ligands [^3H]13a, [^3H]13c, [^3H]13d, [^3H]13e (Scheme S1) were performed using the hippocampal tissue of Sprague–Dawley (SD) rat brains. As depicted in Table A, total binding (TB), nonspecific binding (NSB), and specific binding (SB) of the respective tritiated ligands were measured with increasing concentrations of the radioligands. The dissociation constant (Kd) and capacity (B max) of each radioligand were calculated to confirm their binding affinity.
For membrane preparation, hippocampal tissue from adult rats (Sprague–Dawley) was dissected out, weighed, and frozen in 0.32 M sucrose at −70 °C. On the experiment day, the tissue was thawed, homogenized in 50 mM Tris, 5 mM EDTA (pH 7.4) and then centrifuged at 48 000 xg for 15 min at +4 °C. The pellet was diluted in binding buffer (50 mM Tris, 4 mM MgCl2, 1 mM EDTA pH 7.4) to a final concentration of 2.5 mg w.w./mL. Saturation binding experiments were performed in duplicate, with each tube containing 1 mg w.w. in 0.5 mL binding buffer and 0.1 – 17 nM (11–12 concentrations) of radioligand. Nonspecific binding was measured by adding 10 μM AR-A014418. The assays were incubated for 2–3 h at room temperature and terminated by quick filtration using Whatman GF/B filters pretreated with 0.3% polyethylenimine on a Brandel cell harvester. Radioactivity was measured with a Packard Tri-Carb 2900TR liquid scintillation counter, and data were processed by nonlinear regression analyses using PRISM 4.03.

The test system of data set [8] is GSK-3. Briefly: NHP PET imaging of brain uptake. The conditions noted are these: i.v. bolus, baseline. The class given is in vivo, cynomolgus monkeys.
Source text: as §2, §3

Data set [9] in a line: Protein binding (% free). The note with it: read-out: mean Prot binding (% free). The class given is in vitro ADME.
Data set [10] relates to GSK-3β. Briefly: In vitro autoradiography on rat brain tissue sections. The class given is binding. The note with it: rat brain sections, baseline. The procedure: In the next step, we performed in vitro autoradiography studies on rat brain tissue sections to investigate the binding selectivity and distribution of compounds [^3H]13a–13e (Figure ). […] These findings support the potential of this compound series for further development as GSK-3β-targeted neuroimaging probes.
In vitro autoradiography was conducted on 10 μm thick cry-cut tissue sections of rat tissue that had been thaw-mounted onto microscope slides. The brain sections were incubated in 50 mM Tris-HCl buffer at room temperature and then incubated with [^3H]-ligand for 30 min. The sections were rinsed three times for 10 min each in Tris buffer at 1 °C, followed by a quick rinse in deionized water at 1 °C, and then air-dried at room temperature with a fan. The radiolabeled sections and Amersham plastic tritium standards were then exposed to phosphoimager plates (Fuji BAS-TR2040) overnight. Blocking studies were conducted using a 1000-fold excess of the cold reference compounds, and validated GSK-3β inhibitors AR-A014418 and SB-216763. […] This micromolar concentration is consistent with established methods for GSK-3 radioligand autoradiography blocking experiments.

In data set [11] the target is human recombinant GSK3β (Homo sapiens, UniProt P49841). Briefly: GSK3β scintillation proximity assay (SPA), inhibition of kinase activity. The class given is biochemical. The procedure:
The inhibition of GSK3β activity is assessed using a scintillation proximity assay (SPA) in a 96-well microtiter plate format. The assay utilizes purified human recombinant GSK3β enzyme (∼1 nM active), [γ-^33P]-ATP (0.04 μCi), and a biotinylated peptide substrate (Biotin-[…](PO3H2)-PQL) at a final concentration of 2 μM. Reactions are carried out in an assay buffer containing MOPS, EDTA, β-mercaptoethanol, Brij 35, glycerol, and BSA, and preincubated for 10–15 min at room temperature. Inhibitor testing is conducted in duplicate using 10 different concentrations. The kinase reaction is initiated by adding ATP (1 μM final) in the presence of 50 mM Mg(Ac)2. After a 15 min incubation at room temperature, the reaction is terminated by adding a solution (25 μL) containing 5 mM EDTA, 50 μM ATP, 0.1% Triton X-100, and 10 mg/mL streptavidin-coated SPA beads, followed by the addition of distilled water (50 μL). After a 6-h incubation, bound radioactivity is measured using a MicroBeta Trilux liquid scintillation counter (1450 MicroBeta Trilux, Wallac). Data are analyzed using nonlinear regression with variable slope (GraphPad Prism or Excel Fit), and results are reported as Ki values calculated via the Cheng-Prusoff equation.
On the technique in general: In a scintillation proximity assay essentially only radioactivity close to the scintillant gives light.

Data set [12] can be described thus: Apparent permeability (Papp A-B) and efflux ratio. The class given is in vitro ADME. As for the experimental part: as §1

pIC50, pKd, pKi: −log10 of the molar value. ≈ marks a conversion by molar mass, not a printed value.

Chain of human recombinant GSK3β (P49841 whole entry): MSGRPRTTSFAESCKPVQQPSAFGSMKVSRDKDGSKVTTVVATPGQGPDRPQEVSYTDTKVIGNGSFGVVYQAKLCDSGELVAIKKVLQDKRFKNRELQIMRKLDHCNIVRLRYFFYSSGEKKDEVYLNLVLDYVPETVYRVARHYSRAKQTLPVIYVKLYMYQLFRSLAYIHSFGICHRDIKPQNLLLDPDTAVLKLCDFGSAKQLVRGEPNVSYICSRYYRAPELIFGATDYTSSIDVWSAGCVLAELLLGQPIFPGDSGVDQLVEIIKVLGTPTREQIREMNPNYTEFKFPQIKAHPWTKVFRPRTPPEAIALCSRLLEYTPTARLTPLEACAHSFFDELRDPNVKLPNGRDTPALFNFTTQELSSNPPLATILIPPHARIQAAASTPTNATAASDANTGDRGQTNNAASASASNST
Chain of hERG channel (Q12809 whole entry): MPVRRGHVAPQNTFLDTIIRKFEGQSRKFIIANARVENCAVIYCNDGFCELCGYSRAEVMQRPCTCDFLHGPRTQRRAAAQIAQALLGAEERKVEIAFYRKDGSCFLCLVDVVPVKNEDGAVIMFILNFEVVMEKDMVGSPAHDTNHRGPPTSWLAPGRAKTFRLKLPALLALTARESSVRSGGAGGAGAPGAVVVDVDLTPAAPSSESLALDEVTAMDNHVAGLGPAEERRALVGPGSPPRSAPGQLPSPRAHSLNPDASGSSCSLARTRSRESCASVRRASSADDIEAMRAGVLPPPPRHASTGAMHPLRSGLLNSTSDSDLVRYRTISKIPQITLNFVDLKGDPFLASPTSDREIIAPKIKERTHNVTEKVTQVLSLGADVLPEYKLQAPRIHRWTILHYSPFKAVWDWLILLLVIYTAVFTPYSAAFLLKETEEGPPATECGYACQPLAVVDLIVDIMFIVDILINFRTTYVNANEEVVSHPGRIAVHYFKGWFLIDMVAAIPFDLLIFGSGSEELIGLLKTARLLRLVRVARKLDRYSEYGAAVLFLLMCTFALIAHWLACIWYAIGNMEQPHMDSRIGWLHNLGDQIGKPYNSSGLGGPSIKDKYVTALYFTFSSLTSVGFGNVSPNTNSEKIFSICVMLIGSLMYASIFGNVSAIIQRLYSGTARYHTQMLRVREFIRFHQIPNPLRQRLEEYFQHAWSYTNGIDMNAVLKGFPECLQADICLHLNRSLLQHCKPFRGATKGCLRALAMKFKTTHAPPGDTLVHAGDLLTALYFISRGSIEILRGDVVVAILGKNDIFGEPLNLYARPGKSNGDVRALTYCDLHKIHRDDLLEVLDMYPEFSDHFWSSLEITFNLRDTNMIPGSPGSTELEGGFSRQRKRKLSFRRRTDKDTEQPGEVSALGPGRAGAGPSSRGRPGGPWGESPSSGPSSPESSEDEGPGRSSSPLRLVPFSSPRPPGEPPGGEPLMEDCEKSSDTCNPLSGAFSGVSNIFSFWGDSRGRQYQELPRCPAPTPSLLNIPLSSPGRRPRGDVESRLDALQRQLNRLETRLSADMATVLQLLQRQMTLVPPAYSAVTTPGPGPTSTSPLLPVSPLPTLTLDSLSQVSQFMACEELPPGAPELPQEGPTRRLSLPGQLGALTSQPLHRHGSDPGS

As for `CC(=O)N1CCN(Cc2ccc(Nc3ncc(F)c(-c4cnc(C)n4C4CCOCC4)n3)cc2)CC1` [13e], the figures for the fraction unbound in data set [1] and in data set [9] were 0.12 and 0.111, respectively. For the same compound, the hepatocyte CLint in data set [2] was 12 µL/min/1e6 cells. Further, the bioavailability in data set [3] was 10.1%. The half-life in data set [3] (read-out: mean t 1/2 (converted)) was 1.73 h. In [4], this compound yielded a solubility of 362 µM (≈ 179 µg/mL). Moreover, the negative logarithm of the IC50 (pIC50) was 4.69 in data set [5] and 8.35 in data set [11] (SPA, 1 μM ATP). For the same compound, the P-gp substrate status result in [6] (NHP PET) was “P-glycoprotein substrate”. The “brain uptake after P-gp inhibition” value in [6] (NHP, Tariquidar 6 mg/kg) is listed as “significantly increased the brain uptake”. For the same compound, the negative-log Kd (pKd) in [7] was 8.53. Besides, the “brain uptake (PET)” value in data set [8] is “relatively higher signals in the brain”. Further, the “regional binding in autoradiography” value in [10] (by brain region) is “high binding in the cortex and hippocampus, moderate uptake in the striatum and cerebellum, and relatively low binding in the thalamus”. The “radioactive accumulation / distribution in autoradiography” value in data set [10] (tritiated ligand) was “highest and most regionally distinct uptake”. For the same compound, the pKi in [11] (GSK-3β, calculated via the Cheng-Prusoff equation) was 8.48. In [12], the “P app A-B” value is 12.7 × 10^–6 cm/s. In [12] (not told, Papp B–A/Papp A–B), the efflux ratio was 1.4.

In general, bioavailability refers to the share of a dose that reaches the circulation, judged against a reference dose that is usually intravenous. Usually solubility stands for the concentration that dissolves in the medium under given conditions. Higher therefore signals much dissolved substance. A word on the pIC50: it is the negative decadic logarithm of the IC50, by convention in mol/L. Usually pKd stands for the negative decadic logarithm of the Kd, by convention in mol/L. Lower therefore signals a large Kd. Broadly, the pKi is −log10 of the Ki, conventionally taken in molar units. Usually efflux ratio stands for the permeability from basolateral to apical divided by that in the opposite direction, in the common usage.

These data come from PMC12260939, “Radiosynthesis and Evaluation of ^11C‑Labeled Imidazolyl Pyrimidine Derivatives for Positron Emission Tomography Imaging of Glycogen Synthase Kinase‑3” (ACS Pharmacology & Translational Science, 2025).
